Assay results published in ChEMBL document CHEMBL1287737, “Identification of potent and reversible cruzipain inhibitors for the treatment of Chagas disease” (Bioorg Med Chem Lett, 2010).
pIC50: −log10 of the molar value. Calls of active or inactive are those of the source. No cut-off for these calls is given here.

Key:
[1] = target: Procathepsin L (Homo sapiens, UniProt P07711)
Description: Inhibition of human Cat L

[2] = target: Cathepsin B (Homo sapiens, UniProt P07858)
Description: Inhibition of human Cat B in HepG2 cells

[3] = target: Cruzipain (Trypanosoma cruzi, UniProt P25779)
Description: Inhibition of Trypanosoma cruzi Cruzipain

[4] = target: Cathepsin S (Homo sapiens, UniProt P25774); test: Inhibition of human Cat S expressed in Ramos cells; assay type: cell-based
Sequence of Cathepsin S (P25774 whole entry): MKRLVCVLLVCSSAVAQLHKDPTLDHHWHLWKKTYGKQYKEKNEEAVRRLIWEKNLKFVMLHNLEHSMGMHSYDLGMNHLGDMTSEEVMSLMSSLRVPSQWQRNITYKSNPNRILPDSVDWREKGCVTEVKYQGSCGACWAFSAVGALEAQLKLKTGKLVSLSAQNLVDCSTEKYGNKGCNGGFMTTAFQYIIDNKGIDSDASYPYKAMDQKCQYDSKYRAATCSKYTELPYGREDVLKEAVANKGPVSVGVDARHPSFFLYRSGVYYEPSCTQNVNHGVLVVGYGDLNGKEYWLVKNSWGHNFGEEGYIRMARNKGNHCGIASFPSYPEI

[5] = target: T1, Cathepsin K (Homo sapiens, UniProt P43235); test: Inhibition of human Cat K expressed in Ramos cells; assay type: cell-based
T1 sequence (P43235 whole entry): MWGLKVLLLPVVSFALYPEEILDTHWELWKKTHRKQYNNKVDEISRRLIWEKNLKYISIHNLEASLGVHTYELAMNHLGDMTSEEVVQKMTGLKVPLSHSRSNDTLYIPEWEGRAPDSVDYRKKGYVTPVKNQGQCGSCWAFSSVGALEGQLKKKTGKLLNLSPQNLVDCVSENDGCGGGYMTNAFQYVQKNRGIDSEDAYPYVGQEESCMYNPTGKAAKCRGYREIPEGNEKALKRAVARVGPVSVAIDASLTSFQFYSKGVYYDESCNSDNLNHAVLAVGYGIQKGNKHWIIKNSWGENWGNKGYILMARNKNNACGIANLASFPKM

[6] = Oral bioavailability in dog; assay type: ADME, organism-based, Canis lupus familiaris; details: in vivo
[7] = Half life in dog; assay type: ADME, organism-based, Canis lupus familiaris; details: in vivo
[8] = target: T2, Cathepsin L2 (Homo sapiens, UniProt O60911); test: Inhibition of human Cat V
T2 sequence (O60911 whole entry): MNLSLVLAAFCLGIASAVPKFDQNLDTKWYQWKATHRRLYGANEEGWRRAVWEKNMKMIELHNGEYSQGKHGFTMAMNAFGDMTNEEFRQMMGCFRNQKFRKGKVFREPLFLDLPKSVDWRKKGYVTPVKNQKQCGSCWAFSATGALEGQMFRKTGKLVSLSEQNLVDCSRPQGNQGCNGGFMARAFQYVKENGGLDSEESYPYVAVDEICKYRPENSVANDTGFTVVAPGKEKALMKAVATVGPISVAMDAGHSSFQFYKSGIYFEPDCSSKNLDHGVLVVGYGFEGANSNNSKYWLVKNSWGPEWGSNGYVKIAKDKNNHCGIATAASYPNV

[9] = Half life in rat; assay type: ADME, organism-based; details: in vivo
[10] = Oral bioavailability in rat; assay type: ADME, organism-based; details: in vivo
[11] = tested on: Trypanosoma cruzi; test: Antimicrobial activity against Trypanosoma cruzi infected in mouse assessed as reduction in parasitemia; assay type: functional, organism-based
[12] = organism: Mus musculus; test: Toxicity in Trypanosoma cruzi infected mouse; assay type: organism-based; details: in vivo
[13] = Half life in mouse; assay type: ADME, organism-based; details: in vivo

Sequence of Procathepsin L (P07711 whole entry): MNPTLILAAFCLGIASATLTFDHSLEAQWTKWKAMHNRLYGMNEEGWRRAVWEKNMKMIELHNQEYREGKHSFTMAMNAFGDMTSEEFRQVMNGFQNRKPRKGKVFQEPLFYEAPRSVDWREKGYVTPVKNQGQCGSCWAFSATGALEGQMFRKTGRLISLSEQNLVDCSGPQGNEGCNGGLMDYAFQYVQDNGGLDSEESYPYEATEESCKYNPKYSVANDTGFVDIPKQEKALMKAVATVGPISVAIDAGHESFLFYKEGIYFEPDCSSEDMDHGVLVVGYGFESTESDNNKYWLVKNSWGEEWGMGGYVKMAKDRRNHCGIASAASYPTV
Sequence of Cruzipain (P25779 whole entry): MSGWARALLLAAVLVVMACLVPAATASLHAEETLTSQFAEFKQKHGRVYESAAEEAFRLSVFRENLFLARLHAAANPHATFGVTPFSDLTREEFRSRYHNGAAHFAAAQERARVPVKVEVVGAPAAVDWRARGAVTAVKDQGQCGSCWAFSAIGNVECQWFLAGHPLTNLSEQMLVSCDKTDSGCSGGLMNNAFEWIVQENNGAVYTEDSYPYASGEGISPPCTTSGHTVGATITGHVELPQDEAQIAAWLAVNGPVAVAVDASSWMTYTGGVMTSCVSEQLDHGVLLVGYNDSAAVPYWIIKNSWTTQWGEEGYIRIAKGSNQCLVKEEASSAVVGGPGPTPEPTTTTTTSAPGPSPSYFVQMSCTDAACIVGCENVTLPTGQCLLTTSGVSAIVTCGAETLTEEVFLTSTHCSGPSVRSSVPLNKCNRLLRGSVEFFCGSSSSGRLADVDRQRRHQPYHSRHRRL

Row | SMILES | pIC50 [1] | pIC50 [2] | pIC50 [3] | other results
1 | CC(C)(F)C[C@H](N[C@@H](c1ccc(-c2ccc(S(C)(=O)=O)cc2)cc1)C(F)(F)F)C(=O)N[C@H](C#N)Cc1ccc(C#N)cc1F | 7.31 | 8.05 | – | –
2 | CC(C)(F)C[C@H](N[C@@H](c1ccc(-c2ccc(S(C)(=O)=O)cc2)cc1)C(F)(F)F)C(=O)N[C@H](C#N)CCc1ccccc1 | < 5.00 | 6.40 | 6.29 | –
3 | CC(C)[C@H](N[C@@H](c1ccc(-c2ccc(S(C)(=O)=O)cc2)cc1)C(F)(F)F)C(=O)N[C@H](C#N)Cc1ccccc1 | 6.20 | 6.36 | – | –
4 | CS(=O)(=O)c1ccc(-c2ccc([C@H](N[C@@H](CC3CC3)C(=O)N[C@H](C#N)Cc3ccccc3)C(F)(F)F)cc2)cc1 | 5.28 | 6.64 | – | –
5 | CC(C)(F)C[C@H](N[C@@H](c1ccc(-c2ccc(C3(C(N)=O)CC3)cc2)cc1)C(F)(F)F)C(=O)N[C@H](C#N)Cc1ccccc1 | 6.37 | 7.57 | – | –
6 | CC(C)(F)C[C@H](N[C@@H](c1ccc(-c2ccc(C3(C(=O)N4CCOCC4)CC3)cc2)cc1)C(F)(F)F)C(=O)N[C@H](C#N)Cc1ccccc1 | 5.96 | 7.19 | – | –
7 | CC(C)C[C@H](N[C@@H](c1ccc(-c2ccc(S(C)(=O)=O)cc2)cc1)C(F)(F)F)C(=O)N[C@H](C#N)Cc1ccccc1 | 6.93 | 6.79 | 9.70 | –
8 | CC(C)(F)C[C@H](N[C@@H](c1ccc(-c2ccc(S(C)(=O)=O)cc2)cc1)C(F)(F)F)C(=O)N[C@H](C#N)CC(F)(F)F | 5.58 | – | 6.89 | –
9 | CC(C)(F)C[C@H](N[C@@H](c1ccc(-c2cn[nH]c2)cc1)C(F)(F)F)C(=O)N[C@H](C#N)Cc1ccccc1 | 6.42 | 7.23 | 7.48 | –
10 | CS(=O)(=O)c1ccc(-c2ccc([C@H](N[C@H](C(=O)N[C@H](C#N)Cc3ccccc3)C3CC3)C(F)(F)F)cc2)cc1 | 6.12 | 7.17 | 8.15 | –
11 | CS(=O)(=O)c1ccc(-c2ccc([C@H](N[C@@H](CC(Cl)Cl)C(=O)N[C@H](C#N)Cc3ccccc3)C(F)(F)F)cc2)cc1 | 7.38 | 6.42 | – | –
12 | CC(C)[C@H](N[C@@H](c1ccc(-c2ccc([C@@H](O)C(F)F)cc2)cc1)C(F)(F)F)C(=O)N[C@H](C#N)Cc1ccc(C#N)cc1F | 5.97 | 7.06 | – | pIC50 [4]: 6.49; pIC50 [5]: 8.70; bioavailability [6]: 30%; half-life [7]: 4.6 h; pIC50 [8]: 7.16; half-life [9]: 5.2 h; bioavailability [10]: 20%
13 | CC(C)(F)C[C@H](N[C@@H](c1ccc(-c2ccc(-c3ccncc3)cc2)cc1)C(F)(F)F)C(=O)N[C@H](C#N)Cc1ccccc1 | 6.36 | – | – | –
14 | CC(C)[C@H](N[C@@H](c1ccc(-c2ccc(C3(C(N)=O)CC3)cc2)cc1)C(F)(F)F)C(=O)N[C@H](C#N)Cc1ccc(C#N)cc1F | 7.01 | 7.39 | – | pIC50 [4]: 6.39; pIC50 [5]: 8.52; pIC50 [8]: 7.10
15 | CC(C)C[C@H](N[C@@H](c1ccc(-c2ccc(N3CCNCC3)cc2)cc1)C(F)(F)F)C(=O)NCC#N | – | – | 8.74 | Activity [11]: Active; Activity [12]: Non-toxic
16 | CC(C)(F)C[C@H](N[C@@H](c1ccc(-c2ccc([C@@H](O)C(F)F)cc2)cc1)C(F)(F)F)C(=O)N[C@H](C#N)Cc1ccccc1 | 5.96 | 7.32 | – | –
17 | CC(C)(F)C[C@H](N[C@@H](c1ccc(-c2ccc(S(C)(=O)=O)cc2)cc1)C(F)(F)F)C(=O)N[C@H](C#N)Cc1ccccc1 | 6.02 | 6.91 | – | half-life [13]: < 0.5 h
18 | CC(C)(F)C[C@H](N[C@@H](c1ccc(-c2ccc(S(C)(=O)=O)cc2)cc1)C(F)(F)F)C(=O)N[C@@H](C#N)Cc1ccc(C#N)cc1F | 6.15 | 6.59 | – | –
19 | CC(C)(F)C[C@H](N[C@@H](c1ccc(-c2ccc(S(C)(=O)=O)cc2)cc1)C(F)(F)F)C(=O)N[C@H](C#N)Cc1ccncc1 | 6.66 | 7.10 | – | –
20 | CC(C)(C)[C@H](N[C@@H](c1ccc(-c2ccc(S(C)(=O)=O)cc2)cc1)C(F)(F)F)C(=O)N[C@H](C#N)Cc1ccccc1 | < 5.00 | < 5.00 | 6.42 | –
21 | CC(C)[C@H](N[C@@H](c1ccc(-c2ccc(S(C)(=O)=O)cc2)cc1)C(F)(F)F)C(=O)N[C@H](C#N)Cc1ccc(C#N)cc1F | 6.92 | 6.84 | – | pIC50 [4]: 6.77; pIC50 [5]: 9.05; pIC50 [8]: 7.55
22 | CC(C)(F)C[C@H](N[C@@H](c1ccc(-c2ccc(S(C)(=O)=O)cc2)cc1)C(F)(F)F)C(=O)N[C@H](C#N)C1(c2ccccc2)CC1 | < 5.00 | < 5.00 | < 5.00 | –
23 | CS(=O)(=O)c1ccc(-c2ccc([C@H](N[C@@H](Cc3ccccc3)C(=O)N[C@H](C#N)Cc3ccccc3)C(F)(F)F)cc2)cc1 | 6.34 | 6.24 | 8.15 | –
